Measured values reported in patent US8217004B2, “Sequestering agent for micronutrient fertilisers” (priority 2005, dated 2012).

What was measured:
[1] = published value; cited from earlier work
[2] = test system: Canola; assay: Pot experiment: availability of Zn fertiliser to Canola grown on alkaline and calcareous soils; type: in vivo, Canola (variety Pinnacle); conditions: calcareous grey sandy loam (Streaky Bay) and Sodosol (Birchip); 21 days; FIG. 2; LSD=1.72; p<0.01
From the text: Topsoils from each location were collected, oven dried and passed through a 2 mm sieve. The experimental fertilisers were mixed with 20g of soil, which was banded between 100 g of the unfertilised bulk soil. Total nutrient application equated to (μg/g soil) P 60, N 27, applied as TGMAP, and Zn 0.2 as ZnSO4.7H2O. Chelate rates were based on the concentrations required to complex between 75 and 100% of the Zn in the fertiliser solution. Rates varied depending on the equilibrium constant (logK) and the stoichiometry of the Zn-ligand complexes. […] Each treatment was replicated four times.
Two pre-germinated Canola seeds (variety Pinnacle) were transferred to each pot. The pots were watered to θg=0.5 with deionised water every second day and evaporation was reduced with polyethylene beads, which were spread over the exposed surface of each pot. The plants were grown for 21 days in a controlled environment growth chamber (10 h dark at 15° C., 14 h light at 20° C., 41% humidity) before the shoots were harvested, rinsed, dried, weighed and then digested in concentrated HNO3. Plant digests were analysed for ^65Zn by gamma spectroscopy and for total nutrient contents by ICP-OES.
Data for shoot dry weight, shoot nutrient concentrations and Zn fertiliser uptake were analysed by analysis of variance (ANOVA). Significance between means was determined using the Least Significant Difference (LSD) test.

[3] = n-Octanol/water partition coefficients (Kow) of metal-ligand complexes, shake-flask method; type: physicochemical
From the text: n-Octanol/water partition coefficients (Kow) are commonly used to determine whether molecules can partition into hydrophobic (lipid-soluble) phases. Polar molecules, ie metals, generally partition in the water phase. Neutral, lipid soluble organic molecules may partition within the octanol phase according to their Kow. Most conventional chelate complexes (ie ZnEDTA^2−) partition within the water phase. […] The aim of this experiment was to determine whether Zn-Rhamnolipid complexes would partition within the n-octanol phase. Kow's were measured with varying Rhamnolipid concentrations. […] Final Rhamnolipid concentrations were (mM) 0, 0.1, 0.24, 0.5, 1, 1.5, 2, 2.5. Two millilitres of n-Octanol was added to the solutions before they were shaken end-over-end for 24 hours. Following shaking, 3 ml of solution was removed from the water phase and digested in concentrated HNO3 before analysis for total Zn by ICP-OES. The partition coefficient was calculated according to the equation above.

[4] = test system: Canola; assay: Canola dry matter response to foliar applied Zn (shoot immersion); type: in vivo, Canola (var. Pinnacle); conditions: Zn deficient Canola, shoots immersed five seconds; compared with ZnSO4 or ZnEDTA; FIG. 3; P<0.05, LSD=0.1496
From the text: Dry matter response in Zn deficient Canola was used as a measure of fertiliser effectiveness because it considers metabolically available Zn, rather than total Zn uptake. Pre-germinated Canola seedlings (var. […] After 13 days, whole shoots were immersed in ZnSO4.7H2O solutions for five seconds. […] Rhamnolipid rates were high enough to ensure a Zn Kow of at least 50 at the highest Zn application rate. […] Wetting agent was not required in the Rhamnolipid solutions because of the surfactant properties of the ligand. […] After the three-week growth period, plant roots and shoots were harvested, dried and weighed for dry matter production.

Row | Zn Kow ([3]; at the Rhamnolipid rates used for foliar test, at the highest Zn application rate) | Compound | logK of Zn complex [1] | total Zn uptake by canola (roots absorbed and translocated into shoots) [2] | partitioning of metal-ligand complex into the n-octanol phase (Kow) ([3]; Zn, Mn, Cu, shake-flask, 24 hours, FIG. 1) | plant foliar dry matter response to applied Zn [4]
1 | – | O=C([O-])CN(CCN(CC(=O)O)CC(=O)O)CC(=O)[O-].[Zn+2] [ZnEDTA] | 16.5 | – | – | –
2 | – | O=C(O)CN(CCN(CC(=O)O)CC(=O)O)CC(=O)O [EDTA, reference compound] | – | ineffective | – | –
3 | at least 50 | rhamnolipid | – | significantly increased total Zn uptake | dramatically facilitates the transfer of the metal ion from the aqueous phase into the octanol phase | significantly increased dry matter response to Zn
